Measured values published in PubChem BioAssay (NCI).
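Each compound was tested at five concentrations against cells in 96-well plates for 48 hours. Here, GI50 denotes the concentration required for 50% inhibition of growth. TGI: concentration producing complete growth inhibition.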

System: SK-MEL-28 melanoma
Assay: NCI-60 cell line screen, 48 h

Row | Structure (SMILES) | GI50 [µM] | TGI [µM]
1 | CC(=O)O.[Au].c1ccc([PH+](c2ccccc2)c2ccccc2)cc1 | 1.63 | 3.66
2 | COC(=O)C(=O)C(C(=O)C=C(C)C)C(=O)C(=O)Nc1ccc(C)cc1C (stereo not given) | – | > 100
3 | COC(=O)C(=Cc1cc(OC)c(OC)c(OC)c1-c1cc2c(cc1C(C)=O)OCO2)C(=O)OC | – | 78.1
4 | C/C(=C1/CCC/C(=C(/C)c2ccccc2)C1=O)c1ccccc1 | – | > 100
5 | CCCS(=O)(=O)/C(=C(\c1ccc(Br)cc1)S(=O)(=O)CCC)c1ccc(Br)cc1 | – | > 10
6 | O=C1NC2OCC(O)C(O)C2O1 (stereo not given) | – | > 100

System: SK-MEL-5 melanoma
Assay: NCI-60 cell line screen, 48 h

Row | Structure (SMILES) | GI50 [µM] | TGI [µM]
7 | CC(=O)O.[Au].c1ccc([PH+](c2ccccc2)c2ccccc2)cc1 | 1.26 | 2.9
8 | COC(=O)C(=O)C(C(=O)C=C(C)C)C(=O)C(=O)Nc1ccc(C)cc1C (stereo not given) | – | > 100
9 | COC(=O)C(=Cc1cc(OC)c(OC)c(OC)c1-c1cc2c(cc1C(C)=O)OCO2)C(=O)OC | – | 70.1
10 | C/C(=C1/CCC/C(=C(/C)c2ccccc2)C1=O)c1ccccc1 | – | 47.8
11 | CCCS(=O)(=O)/C(=C(\c1ccc(Br)cc1)S(=O)(=O)CCC)c1ccc(Br)cc1 | – | > 10
12 | O=C1NC2OCC(O)C(O)C2O1 (stereo not given) | – | > 100

System: SK-OV-3 ovarian
Assay: NCI-60 cell line screen, 48 h

Row | Structure (SMILES) | GI50 [µM] | TGI [µM]
13 | CC(=O)O.[Au].c1ccc([PH+](c2ccccc2)c2ccccc2)cc1 | 15.8 | 29.2
14 | COC(=O)C(=O)C(C(=O)C=C(C)C)C(=O)C(=O)Nc1ccc(C)cc1C (stereo not given) | – | > 100
15 | COC(=O)C(=Cc1cc(OC)c(OC)c(OC)c1-c1cc2c(cc1C(C)=O)OCO2)C(=O)OC | – | > 211
16 | C/C(=C1/CCC/C(=C(/C)c2ccccc2)C1=O)c1ccccc1 | – | > 100
17 | CCCS(=O)(=O)/C(=C(\c1ccc(Br)cc1)S(=O)(=O)CCC)c1ccc(Br)cc1 | – | > 10
18 | O=C1NC2OCC(O)C(O)C2O1 (stereo not given) | – | > 100

System: SN12C renal
Assay: NCI-60 cell line screen, 48 h

Row | Structure (SMILES) | GI50 [µM] | TGI [µM]
19 | CC(=O)O.[Au].c1ccc([PH+](c2ccccc2)c2ccccc2)cc1 | 2.94 | 8.85
20 | COC(=O)C(=O)C(C(=O)C=C(C)C)C(=O)C(=O)Nc1ccc(C)cc1C (stereo not given) | – | > 100
21 | COC(=O)C(=Cc1cc(OC)c(OC)c(OC)c1-c1cc2c(cc1C(C)=O)OCO2)C(=O)OC | – | 58.8
22 | C/C(=C1/CCC/C(=C(/C)c2ccccc2)C1=O)c1ccccc1 | – | > 100
23 | CCCS(=O)(=O)/C(=C(\c1ccc(Br)cc1)S(=O)(=O)CCC)c1ccc(Br)cc1 | – | > 10
24 | O=C1NC2OCC(O)C(O)C2O1 (stereo not given) | – | > 100

System: SNB-19 CNS
Assay: NCI-60 cell line screen, 48 h

Row | Structure (SMILES) | GI50 [µM] | TGI [µM]
25 | CC(=O)O.[Au].c1ccc([PH+](c2ccccc2)c2ccccc2)cc1 | 4.11 | 15.8
26 | COC(=O)C(=O)C(C(=O)C=C(C)C)C(=O)C(=O)Nc1ccc(C)cc1C (stereo not given) | – | > 100
27 | COC(=O)C(=Cc1cc(OC)c(OC)c(OC)c1-c1cc2c(cc1C(C)=O)OCO2)C(=O)OC | – | 69.6
28 | C/C(=C1/CCC/C(=C(/C)c2ccccc2)C1=O)c1ccccc1 | – | > 100
29 | CCCS(=O)(=O)/C(=C(\c1ccc(Br)cc1)S(=O)(=O)CCC)c1ccc(Br)cc1 | – | > 10
30 | O=C1NC2OCC(O)C(O)C2O1 (stereo not given) | – | > 100

System: SNB-75 CNS
Assay: NCI-60 cell line screen, 48 h

Row | Structure (SMILES) | GI50 [µM] | TGI [µM]
31 | CC(=O)O.[Au].c1ccc([PH+](c2ccccc2)c2ccccc2)cc1 | 8.1 | 20.5
32 | COC(=O)C(=O)C(C(=O)C=C(C)C)C(=O)C(=O)Nc1ccc(C)cc1C (stereo not given) | – | > 100
33 | C/C(=C1/CCC/C(=C(/C)c2ccccc2)C1=O)c1ccccc1 | – | > 100
34 | CCCS(=O)(=O)/C(=C(\c1ccc(Br)cc1)S(=O)(=O)CCC)c1ccc(Br)cc1 | – | > 10
35 | O=C1NC2OCC(O)C(O)C2O1 (stereo not given) | – | > 100

System: SNB-78 CNS
Assay: NCI-60 cell line screen, 48 h

Row | Structure (SMILES) | GI50 [µM] | TGI [µM]
36 | CC(=O)O.[Au].c1ccc([PH+](c2ccccc2)c2ccccc2)cc1 | 8.06 | > 70.3
37 | COC(=O)C(=O)C(C(=O)C=C(C)C)C(=O)C(=O)Nc1ccc(C)cc1C (stereo not given) | – | > 100
38 | C/C(=C1/CCC/C(=C(/C)c2ccccc2)C1=O)c1ccccc1 | – | > 100
39 | CCCS(=O)(=O)/C(=C(\c1ccc(Br)cc1)S(=O)(=O)CCC)c1ccc(Br)cc1 | – | > 10
40 | O=C1NC2OCC(O)C(O)C2O1 (stereo not given) | – | > 100

System: SR leukemia
Assay: NCI-60 cell line screen, 48 h

Row | Structure (SMILES) | TGI [µM]
41 | COC(=O)C(=O)C(C(=O)C=C(C)C)C(=O)C(=O)Nc1ccc(C)cc1C (stereo not given) | > 100
42 | COC(=O)C(=Cc1cc(OC)c(OC)c(OC)c1-c1cc2c(cc1C(C)=O)OCO2)C(=O)OC | > 211
43 | C/C(=C1/CCC/C(=C(/C)c2ccccc2)C1=O)c1ccccc1 | 43.5
44 | CCCS(=O)(=O)/C(=C(\c1ccc(Br)cc1)S(=O)(=O)CCC)c1ccc(Br)cc1 | > 10
45 | O=C1NC2OCC(O)C(O)C2O1 (stereo not given) | > 100

System: SW-620 colon
Assay: NCI-60 cell line screen, 48 h

Row | Structure (SMILES) | TGI [µM]
46 | COC(=O)C(=O)C(C(=O)C=C(C)C)C(=O)C(=O)Nc1ccc(C)cc1C (stereo not given) | > 100
47 | COC(=O)C(=Cc1cc(OC)c(OC)c(OC)c1-c1cc2c(cc1C(C)=O)OCO2)C(=O)OC | 102
48 | C/C(=C1/CCC/C(=C(/C)c2ccccc2)C1=O)c1ccccc1 | > 100
49 | CCCS(=O)(=O)/C(=C(\c1ccc(Br)cc1)S(=O)(=O)CCC)c1ccc(Br)cc1 | > 10
50 | O=C1NC2OCC(O)C(O)C2O1 (stereo not given) | > 100

System: TK-10 renal
Assay: NCI-60 cell line screen, 48 h

Row | Structure (SMILES) | GI50 [µM] | TGI [µM]
51 | CC(=O)O.[Au].c1ccc([PH+](c2ccccc2)c2ccccc2)cc1 | 2.92 | 6.74
52 | COC(=O)C(=O)C(C(=O)C=C(C)C)C(=O)C(=O)Nc1ccc(C)cc1C (stereo not given) | – | > 100
53 | COC(=O)C(=Cc1cc(OC)c(OC)c(OC)c1-c1cc2c(cc1C(C)=O)OCO2)C(=O)OC | – | 187
54 | C/C(=C1/CCC/C(=C(/C)c2ccccc2)C1=O)c1ccccc1 | – | > 100
55 | CCCS(=O)(=O)/C(=C(\c1ccc(Br)cc1)S(=O)(=O)CCC)c1ccc(Br)cc1 | – | > 10
56 | O=C1NC2OCC(O)C(O)C2O1 (stereo not given) | – | > 100

System: U251 CNS
Assay: NCI-60 cell line screen, 48 h

Row | Structure (SMILES) | GI50 [µM] | TGI [µM]
57 | CC(=O)O.[Au].c1ccc([PH+](c2ccccc2)c2ccccc2)cc1 | 2.57 | 7.49
58 | COC(=O)C(=O)C(C(=O)C=C(C)C)C(=O)C(=O)Nc1ccc(C)cc1C (stereo not given) | – | > 100
59 | COC(=O)C(=Cc1cc(OC)c(OC)c(OC)c1-c1cc2c(cc1C(C)=O)OCO2)C(=O)OC | – | 66.4
60 | C/C(=C1/CCC/C(=C(/C)c2ccccc2)C1=O)c1ccccc1 | – | 74.2
61 | CCCS(=O)(=O)/C(=C(\c1ccc(Br)cc1)S(=O)(=O)CCC)c1ccc(Br)cc1 | – | > 10
62 | O=C1NC2OCC(O)C(O)C2O1 (stereo not given) | – | > 100

System: UACC-257 melanoma
Assay: NCI-60 cell line screen, 48 h

Row | Structure (SMILES) | GI50 [µM] | TGI [µM]
63 | CC(=O)O.[Au].c1ccc([PH+](c2ccccc2)c2ccccc2)cc1 | 1.82 | 5.68
64 | COC(=O)C(=O)C(C(=O)C=C(C)C)C(=O)C(=O)Nc1ccc(C)cc1C (stereo not given) | – | > 100
65 | COC(=O)C(=Cc1cc(OC)c(OC)c(OC)c1-c1cc2c(cc1C(C)=O)OCO2)C(=O)OC | – | 188
66 | C/C(=C1/CCC/C(=C(/C)c2ccccc2)C1=O)c1ccccc1 | – | 74.9
67 | CCCS(=O)(=O)/C(=C(\c1ccc(Br)cc1)S(=O)(=O)CCC)c1ccc(Br)cc1 | – | > 10
68 | O=C1NC2OCC(O)C(O)C2O1 (stereo not given) | – | > 100

System: UACC-62 melanoma
Assay: NCI-60 cell line screen, 48 h

Row | Structure (SMILES) | GI50 [µM] | TGI [µM]
69 | CC(=O)O.[Au].c1ccc([PH+](c2ccccc2)c2ccccc2)cc1 | 1.47 | 4.03
70 | COC(=O)C(=O)C(C(=O)C=C(C)C)C(=O)C(=O)Nc1ccc(C)cc1C (stereo not given) | – | > 100
71 | COC(=O)C(=Cc1cc(OC)c(OC)c(OC)c1-c1cc2c(cc1C(C)=O)OCO2)C(=O)OC | – | 73.8
72 | C/C(=C1/CCC/C(=C(/C)c2ccccc2)C1=O)c1ccccc1 | – | > 100
73 | CCCS(=O)(=O)/C(=C(\c1ccc(Br)cc1)S(=O)(=O)CCC)c1ccc(Br)cc1 | – | > 10
74 | O=C1NC2OCC(O)C(O)C2O1 (stereo not given) | – | > 100

System: UO-31 renal
Assay: NCI-60 cell line screen, 48 h

Row | Structure (SMILES) | GI50 [µM] | TGI [µM]
75 | CC(=O)O.[Au].c1ccc([PH+](c2ccccc2)c2ccccc2)cc1 | 11.1 | 24.4
76 | COC(=O)C(=O)C(C(=O)C=C(C)C)C(=O)C(=O)Nc1ccc(C)cc1C (stereo not given) | – | > 100
77 | C/C(=C1/CCC/C(=C(/C)c2ccccc2)C1=O)c1ccccc1 | – | > 100
78 | CCCS(=O)(=O)/C(=C(\c1ccc(Br)cc1)S(=O)(=O)CCC)c1ccc(Br)cc1 | – | > 10
79 | O=C1NC2OCC(O)C(O)C2O1 (stereo not given) | – | > 100

System: XF 498 CNS
Assay: NCI-60 cell line screen, 48 h

Row | Structure (SMILES) | TGI [µM]
80 | COC(=O)C(=O)C(C(=O)C=C(C)C)C(=O)C(=O)Nc1ccc(C)cc1C (stereo not given) | > 100
81 | COC(=O)C(=Cc1cc(OC)c(OC)c(OC)c1-c1cc2c(cc1C(C)=O)OCO2)C(=O)OC | 59.7
82 | C/C(=C1/CCC/C(=C(/C)c2ccccc2)C1=O)c1ccccc1 | 82
83 | CCCS(=O)(=O)/C(=C(\c1ccc(Br)cc1)S(=O)(=O)CCC)c1ccc(Br)cc1 | > 10
